Assay results reported in patent US20150105252A1, “SUBSTITUTED PYRAZOLES AS HERBICIDES” (E I DU PONT DE NEMOURS AND COMPANY, priority 2013, published 2015).

What was measured:
Details in all cases: scale 0 to 100
[1] = system: bluegrass; experiment: Test D postemergence; type: in vivo, Poa annua
Summary of the method: (§1)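 Scores of 0 (no effect) to 100 (complete control) come from visual comparison with untreated plants 14–21 days after spraying. Applications were made pre-emergence to silt loam or post-emergence to plants 2–18 cm tall.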

[2] = system: wheat, winter; experiment: Test D postemergence; type: in vivo, Triticum aestivum
Summary of the method: as §1

[3] = system: wheat, spring; experiment: Test D postemergence; type: in vivo, Triticum aestivum
Summary of the method: as §1

[4] = system: field poppy; experiment: Test D postemergence; type: in vivo, Papaver rhoeas
Excerpt: (§2) Seeds of plant species selected from bluegrass (annual bluegrass, Poa annua), blackgrass (Alopecurus myosuroides), canarygrass (littleseed canarygrass, Phalaris minor), chickweed (common chickweed, Stellaria media), galium (catchweed bedstraw, Galium aparine), bromegrass, downy (downy bromegrass, Bromus tectorum), field poppy (Papaver rhoeas), field violet (Viola arvensis), foxtail, green (green foxtail, Setaria viridis), deadnettle (henbit deadnettle, Lamium amplexicaule), ryegrass, Italian (Italian ryegrass, Lolium multiflorum), kochia (Kochia scoparia), lambsquarters (Chenopodium album), oilseed rape (Brassica napus), pigweed (redroot pigweed, Amaranthus retroflexus), chamomile (scentless chamomile, Matricaria inodora), speedwell (bird's-eye speedwell, Veronica persica), barley, spring (spring barley, Hordeum vulgare), wheat, spring (spring wheat, Triticum aestivum), buckwheat, wild (wild buckwheat, Polygonum convolvulus), mustard, wild (wild mustard, Sinapis arvensis), oat, wild (wild oat, Avena fatua), radish, wild (wild radish, Raphanus raphanistrum), windgrass (Apera spica-venti), Russian thistle (Salsola kali), barley, winter (winter barley, Hordeum vulgare), and wheat, winter (winter wheat, Triticum aestivum) were planted into a silt loam soil and treated preemergence with test chemicals formulated in a non-phytotoxic solvent mixture which included a surfactant.
(§3) At the same time, these species were planted in pots containing Redi-Earth® planting medium (Scotts Company, 14111 Scottslawn Road, Marysville, Ohio 43041) comprising spaghnum peat moss, vermiculite, wetting agent and starter nutrients and treated with postemergence applications of the test chemicals formulated in the same manner. Plants ranged in height from 2 to 18 cm (1- to 4-leaf stage). Treated plants and controls were maintained in a controlled growth environment for 14 to 21 days after which time all species were compared to controls and visually evaluated. Plant response ratings, summarized in Table D, are based on a scale of 0 to 100 where 0 is no effect and 100 is complete control. A dash (-) response means no test result.

[5] = system: chickweed; experiment: Test D preemergence; type: in vivo, Stellaria media
Summary of the method: as §1

[6] = system: oat, wild; experiment: Test D postemergence; type: in vivo, Avena fatua
Excerpt: as §2, §3

[7] = system: bluegrass; experiment: Test D preemergence; type: in vivo, Poa annua
Excerpt: as §2, §3

[8] = system: speedwell; experiment: Test D postemergence; type: in vivo, Veronica persica
Summary of the method: as §1

[9] = system: field violet; experiment: Test D postemergence; type: in vivo, Viola arvensis
Excerpt: as §2, §3

[10] = system: foxtail, green; experiment: Test D postemergence; type: in vivo, Setaria viridis
Summary of the method: as §1

| Compound | Bluegrass plant response rating ([1]; Postemergence, 31 g ai/ha) | Bluegrass plant response rating ([1]; Postemergence, 125 g ai/ha) | Bluegrass plant response rating ([1]; Postemergence, 250 g ai/ha) | Bluegrass plant response rating ([1]; postemergence, 62 g ai/ha) | Wheat, Winter plant response rating ([2]; Postemergence, 31 g ai/ha) | Wheat, Winter plant response rating ([2]; Postemergence, 125 g ai/ha) | Wheat, Winter plant response rating ([2]; Postemergence, 250 g ai/ha) | Wheat, Winter plant response rating ([2]; postemergence, 62 g ai/ha) | Wheat, Spring plant response rating ([3]; Postemergence, 31 g ai/ha) | Wheat, Spring plant response rating ([3]; Postemergence, 125 g ai/ha) | Wheat, Spring plant response rating ([3]; Postemergence, 250 g ai/ha) | Wheat, Spring plant response rating ([3]; postemergence, 62 g ai/ha) | Field Poppy plant response rating ([4]; Postemergence, 31 g ai/ha) | Field Poppy plant response rating ([4]; Postemergence, 125 g ai/ha) | Field Poppy plant response rating ([4]; Postemergence, 250 g ai/ha) | Field Poppy plant response rating ([4]; postemergence, 62 g ai/ha) | Plant response rating, Chickweed ([5]; 31 g ai/ha) | Plant response rating, Chickweed ([5]; 62 g ai/ha) | Plant response rating, Chickweed ([5]; 125 g ai/ha) | Plant response rating, Chickweed ([5]; 250 g ai/ha) | also measured |
| --- | --- | --- | --- | --- | --- | --- | --- | --- | --- | --- | --- | --- | --- | --- | --- | --- | --- | --- | --- | --- | --- |
| CCCc1cc(C(=O)NCC(F)(F)F)nn1Cc1cc(C(F)(F)F)nn1C [Compound 138] | 15 | 30 | 60 | 15 | 15 | 20 | 35 | 15 | 15 | 15 | 25 | 15 | 55 | 65 | 75 | 55 | 100 | 100 | 100 | 100 | Oat, Wild plant response rating ([6]; Postemergence, 31 g ai/ha): 20; Oat, Wild plant response rating ([6]; Postemergence, 125 g ai/ha): 25; Oat, Wild plant response rating ([6]; Postemergence, 250 g ai/ha): 60; Oat, Wild plant response rating ([6]; postemergence, 62 g ai/ha): 20; Plant response rating, Bluegrass ([7]; 31 g ai/ha): 20; Plant response rating, Bluegrass ([7]; 62 g ai/ha): 55; Plant response rating, Bluegrass ([7]; 125 g ai/ha): 90; Plant response rating, Bluegrass ([7]; 250 g ai/ha): 100; Speedwell plant response rating ([8]; Postemergence, 31 g ai/ha): 100; Speedwell plant response rating ([8]; Postemergence, 125 g ai/ha): 100; Speedwell plant response rating ([8]; Postemergence, 250 g ai/ha): 100; Speedwell plant response rating ([8]; postemergence, 62 g ai/ha): 100; Field Violet plant response rating ([9]; Postemergence, 31 g ai/ha): 80; Field Violet plant response rating ([9]; Postemergence, 125 g ai/ha): 75; Field Violet plant response rating ([9]; Postemergence, 250 g ai/ha): 95; Field Violet plant response rating ([9]; postemergence, 62 g ai/ha): 80; Foxtail, Green plant response rating ([10]; Postemergence, 31 g ai/ha): 15; Foxtail, Green plant response rating ([10]; Postemergence, 125 g ai/ha): 65; Foxtail, Green plant response rating ([10]; Postemergence, 250 g ai/ha): 80; Foxtail, Green plant response rating ([10]; postemergence, 62 g ai/ha): 15 |
| CCOc1cc(C(=O)NC2CC2)nn1Cc1ccnc(C(F)(F)F)c1 [Compound 189] | 15 | 15 | 30 | 15 | 20 | 25 | 50 | 20 | 0 | 5 | 25 | 0 | 55 | 75 | 75 | 55 | 95 | 100 | 100 | 100 | Oat, Wild plant response rating ([6]; Postemergence, 31 g ai/ha): 20; Oat, Wild plant response rating ([6]; Postemergence, 125 g ai/ha): 30; Oat, Wild plant response rating ([6]; Postemergence, 250 g ai/ha): 35; Oat, Wild plant response rating ([6]; postemergence, 62 g ai/ha): 20; Plant response rating, Bluegrass ([7]; 31 g ai/ha): 15; Plant response rating, Bluegrass ([7]; 62 g ai/ha): 50; Plant response rating, Bluegrass ([7]; 125 g ai/ha): 70; Plant response rating, Bluegrass ([7]; 250 g ai/ha): 85; Speedwell plant response rating ([8]; Postemergence, 31 g ai/ha): 70; Speedwell plant response rating ([8]; Postemergence, 125 g ai/ha): 85; Speedwell plant response rating ([8]; Postemergence, 250 g ai/ha): 90; Speedwell plant response rating ([8]; postemergence, 62 g ai/ha): 70; Field Violet plant response rating ([9]; Postemergence, 31 g ai/ha): 60; Field Violet plant response rating ([9]; Postemergence, 125 g ai/ha): 100; Field Violet plant response rating ([9]; Postemergence, 250 g ai/ha): 100; Field Violet plant response rating ([9]; postemergence, 62 g ai/ha): 60; Foxtail, Green plant response rating ([10]; Postemergence, 31 g ai/ha): 20; Foxtail, Green plant response rating ([10]; Postemergence, 125 g ai/ha): 15; Foxtail, Green plant response rating ([10]; Postemergence, 250 g ai/ha): 50; Foxtail, Green plant response rating ([10]; postemergence, 62 g ai/ha): 20 |
